Test results taken from patent US11820773B2, “Tricyclic compounds” (ALIGOS THERAPEUTICS, INC., priority 2020, dated 2023).

Each compound was assayed on HBV (assay: HBV-DNA antiviral assay using HepG2.117 cells (intracellular HBV DNA by qPCR)). Details: HBV DNA inhibition, 3 days incubation, 2% DMSO.
Format: cell-based, genotype D HBV
Outline: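 Endpoints are intracellular HBV DNA by qPCR (interpolated from a gBlock standard curve) and ATP-based viability in duplicate plates. Doxycycline-free HepG2.117 Tet-off cells received compounds (9 concentrations, 4-fold steps, 2% DMSO) for 3 days. Inhibition normalised to DMSO wells; EC50/EC90/CC50 by curve fitting.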
In the case of `CNC(=O)c1ccc(-n2c(=O)c3c(n4ncc(Cc5ccccc5)c24)CN(C(=O)c2ccc(Br)c(C(F)(F)F)c2)CC3)cc1` [Compound 4, 4-[5-benzyl-12-[4-bromo-3-(trifluoromethyl)benzoyl]-8-oxo-2,3,7,12-tetrazacyclo[7.4.0.0^2,6]trideca-1(9),3,5-trien-7-yl]-N-methyl-benzamide], the EC50 is reported as under 50 nM. Compound `CNc1onc2cc(-n3c(=O)c4c(n5ncc(Cc6ccccc6)c35)CN(C(=O)c3ccc(Br)c(Cl)c3)CC4)ccc12` [Compound 6, 5-benzyl-12-(4-bromo-3-chloro-benzoyl)-7-[3-(methylamino)-2,1-benzoxazol-6-yl]-2,3,7,12-tetrazatricyclo[7.4.0.0^2,6]trideca-1(9),3,5-trien-8-one] has an EC50 of under 50 nM. Compound `Cn1cnnc1-c1ccc(-n2c(=O)c3c(n4ncc(Cc5ccccc5)c24)CN(C(=O)c2ccc(Br)c(Cl)c2)CC3)cc1` [Compound 9, 5-benzyl-12-(4-bromo-3-chloro-benzoyl)-7-[4-(4-methyl-1,2,4-triazol-3-yl)phenyl]-2,3,7,12-tetrazatricyclo[7.4.0.0^2,6]trideca-1(9),3,5-trien-8-one] has an EC50 of under 50 nM. `Cn1nnc(-c2ccc(-n3c(=O)c4c(n5ncc(Cc6ccccc6)c35)CN(C(=O)c3ccc(Br)c(Cl)c3)CC4)cc2)n1` [Compound 10, 5-benzyl-12-(4-bromo-3-chloro-benzoyl)-7-[4-(2-methyltetrazol-5-yl)phenyl]-2,3,7,12-tetrazatricyclo[7.4.0.0^2,6]trideca-1(9),3,5-trien-8-one] was tested, and the EC50 was under 50 nM. Compound `CNC(=O)c1ccc(-n2c(=O)c3c(n4ncc(CC5CCCC5)c24)CN(C(=O)c2ccc(Br)c(Cl)c2)CC3)cc1` [Compound 11, 4-[12-(4-bromo-3-chloro-benzoyl)-5-(cyclopentylmethyl)-8-oxo-2,3,7,12-tetrazatricyclo[7.4.0.0^2,6]trideca-1(9),3,5-trien-7-yl]-N-methyl-benzamide] has an EC50 of under 50 nM.

Same assay, conditions: Hepatitis B virus, 72 h, HBV DNA inhibition, 3 days incubation, 2% DMSO
With `C[C@H]1Cc2c(n3ncc(Cc4ccccc4)c3n(-c3ccc(-c4cnnn4C)cc3)c2=O)CN1C(=O)c1ccc(Br)c(C(F)(F)F)c1` (stereo in doubt) [Compound 105b, rac-(11S)-5-benzyl-12-[4-bromo-3-(trifluoromethyl)benzoyl]-11-methyl-7-[4-(3-methyltriazol-4-yl)phenyl]-2,3,7,12-tetrazatricyclo[7.4.0.0^2,6]trideca-1(9),3,5-trien-8-one] the EC50 was 50 to 500 nM. `CC(C)Cc1cnn2c3c(c(=O)n(-c4ccc5c(c4)nnn5CCO)c12)C[C@@H](C)N(C(=O)c1ccc(Br)c(C(F)(F)F)c1)C3` (stereo in doubt) [Compound 108a, rac-(11R)-12-[4-bromo-3-(trifluoromethyl)benzoyl]-7-[1-(2-hydroxyethyl)benzotriazol-5-yl]-5-isobutyl-11-methyl-2,3,7,12-tetrazatricyclo[7.4.0.0^2,6]trideca-1(9),3,5-trien-8-one] gave an EC50 of under 50 nM. Compound `CC(C)Cc1cnn2c3c(c(=O)n(-c4ccc5c(c4)nnn5CCO)c12)C[C@H](C)N(C(=O)c1ccc(Br)c(C(F)(F)F)c1)C3` (stereo in doubt) [Compound 108b, rac-(11S)-12-[4-bromo-3-(trifluoromethyl)benzoyl]-7-[1-(2-hydroxyethyl)benzotriazol-5-yl]-5-isobutyl-11-methyl-2,3,7,12-tetrazatricyclo[7.4.0.0^2,6]trideca-1(9),3,5-trien-8-one] has an EC50 of 50 to 500 nM. In the case of `CNC(=O)c1ccc(-n2c(=O)c3c(n4ncc(Cc5ccccc5)c24)CN(C(=O)c2ccc(Br)c(C(F)(F)F)c2)[C@H](C)C3)nc1` (stereo in doubt) [Compound 109a, N-methyl-6-[rac-(11R)-5-benzyl-12-[4-bromo-3-(trifluoromethyl)benzoyl]-11-methyl-8-oxo-2,3,7,12-tetrazatricyclo[7.4.0.0^2,6]trideca-1(9),3,5-trien-7-yl]pyridine-3-carboxamide], the EC50 is reported as 50 to 500 nM. In the case of `CNC(=O)c1ccc(-n2c(=O)c3c(n4ncc(Cc5ccccc5)c24)CN(C(=O)c2ccc(Br)c(C(F)(F)F)c2)[C@@H](C)C3)nc1` (stereo in doubt) [Compound 109b, N-methyl-6-[rac-(11S)-5-benzyl-12-[4-bromo-3-(trifluoromethyl)benzoyl]-11-methyl-8-oxo-2,3,7,12-tetrazatricyclo[7.4.0.0^2,6]trideca-1(9),3,5-trien-7-yl]pyridine-3-carboxamide], the EC50 is reported as under 50 nM. Compound `Cc1nnc(-c2ccc(-n3c(=O)c4c(n5ncc(Cc6ccccc6)c35)CN(C(=O)c3ccc(Br)c(Cl)c3)CC4)cc2)[nH]1` [Compound 1, 5-benzyl-12-(4-bromo-3-chloro-benzoyl)-7-[4-(5-methyl-4H-1,2,4-triazol-3-yl)phenyl]-2,3,7,12-tetrazatricyclo[7.4.0.0^2,6]trideca-1(9),3,5-trien-8-one] has an EC50 of under 50 nM. `CNC(=O)c1ccc(-n2c(=O)c3c(n4ncc(Cc5ccccc5)c24)CN(C(=O)c2ccc(Br)c(C)c2)CC3)cc1` [Compound 2, 4-[5-benzyl-12-(4-bromo-3-methyl-benzoyl)-8-oxo-2,3,7,12-tetrazatricyclo[7.4.0.0″2,6]trideca-1(9),3,5-trien-7-yl]-N-methyl-benzamide] was tested, and the EC50 was under 50 nM. `CNC(=O)c1ccc(-n2c(=O)c3c(n4ncc(Cc5ccccc5)c24)CN(C(=O)c2ccc(Br)c(C(F)F)c2)CC3)cc1` [Compound 3, 4-[5-benzyl-12-[4-bromo-3-(difluoromethyl)benzoyl]-8-oxo-2,3,7,12-tetrazatricyclo[7.4.0.0^2,6]trideca-1(9),3,5-trien-7-yl]-N-methyl-benzamide] gave an EC50 of under 50 nM. Compound `CNc1nsc2cc(-n3c(=O)c4c(n5ncc(Cc6ccccc6)c35)CN(C(=O)c3ccc(Br)c(Cl)c3)CC4)ccc12` [Compound 5, 5-benzyl-12-(4-bromo-3-chloro-benzoyl)-7-[3-(methylamino)-1,2-benzothiazol-6-yl]-2,3,7,12-tetrazatricyclo[7.4.0.0^2,6]trideca-1(9),3,5-trien-8-one] has an EC50 of under 50 nM. With `Cc1cnn(-c2ccc(-n3c(=O)c4c(n5ncc(Cc6ccccc6)c35)CN(C(=O)c3ccc(Br)c(Cl)c3)CC4)cc2)c1` [Compound 7, 5-benzyl-12-(4-bromo-3-chloro-benzoyl)-7-[4-(4-methylpyrazol-1-yl)phenyl]-2,3,7,12-tetrazatricyclo[7.4.0.0^2,6]trideca-1(9),3,5-trien-8-one] the EC50 was under 50 nM. Compound `Cn1nnnc1-c1ccc(-n2c(=O)c3c(n4ncc(Cc5ccccc5)c24)CN(C(=O)c2ccc(Br)c(Cl)c2)CC3)cc1` [Compound 8, 5-benzyl-12-(4-bromo-3-chloro-benzoyl)-7-[4-(1-methyltetrazol-5-yl)phenyl]-2,3,7,12-tetrazatricyclo[7.4.0.0^2,6]trideca-1(9),3,5-trien-8-one] has an EC50 of under 50 nM. With `Cc1ccnn1-c1ccc(-n2c(=O)c3c(n4ncc(Cc5ccccc5)c24)CN(C(=O)c2ccc(Br)c(Cl)c2)CC3)cc1` [Compound 12, 5-benzyl-12-(4-bromo-3-chloro-benzoyl)-7-[4-(5-methylpyrazol-1-yl)phenyl]-2,3,7,12-tetrazatricyclo[7.4.0.0^2,6]trideca-1(9),3,5-trien-8-one] the EC50 was under 50 nM. Compound `O=C(c1ccc(Br)c(Cl)c1)N1CCc2c(n3ncc(Cc4ccccc4)c3n(-c3ccc(-n4ccc(C(F)(F)F)n4)cc3)c2=O)C1` [Compound 13, 5-benzyl-12-(4-bromo-3-chloro-benzoyl)-7-[4-[3-(trifluoromethyl)pyrazol-1-yl]phenyl]-2,3,7,12-tetrazatricyclo[7.4.0.0^2,6]trideca-1(9),3,5-trien-8-one] has an EC50 of 50 to 500 nM. With `CNC(=O)c1ccc(-n2c(=O)c3c(n4ncc(CC5CCC5)c24)CN(C(=O)c2ccc(Br)c(Cl)c2)CC3)cc1` [Compound 14, 4-[12-(4-bromo-3-chloro-benzoyl)-5-(cyclobutylmethyl)-8-oxo-2,3,7,12-tetrazatricyclo[7.4.0.0^2,6]trideca-1(9),3,5-trien-7-yl]-N-methyl-benzamide] the EC50 was under 50 nM. `CN1Cc2cc(-n3c(=O)c4c(n5ncc(Cc6ccccc6)c35)CN(C(=O)c3ccc(Br)c(Cl)c3)CC4)ccc2C1=O` [Compound 15, 5-benzyl-12-(4-bromo-3-chloro-benzoyl)-7-(2-methyl-1-oxo-isoindolin-5-yl)-2,3,7,12-tetrazatricyclo[7.4.0.0^2,6]trideca-1(9),3,5-trien-8-one] showed an EC50 of under 50 nM. `CNC(=O)c1ccc(-n2c(=O)c3c(n4ncc(CC5CCC5)c24)CN(C(=O)c2ccc(Br)c(C(F)(F)F)c2)CC3)cc1` [Compound 16, 4-[12-[4-bromo-3-(trifluoromethyl)benzoyl]-5-(cyclobutylmethyl)-8-oxo-2,3,7,12-tetrazatricyclo[7.4.0.0^2,6]trideca-1(9),3,5-trien-7-yl]-N-methyl-benzamide] was tested, and the EC50 was under 50 nM. With `CNC(=O)c1ccc(-n2c(=O)c3c(n4ncc(CC5CCOC5)c24)CN(C(=O)c2ccc(Br)c(Cl)c2)CC3)cc1` (stereo not drawn) [Compound 17, 4-[12-(4-bromo-3-chloro-benzoyl)-8-oxo-5-(tetrahydrofuran-3-ylmethyl)-2,3,7,12-tetrazatricyclo[7.4.0.0^2,6]trideca-1(9),3,5-trien-7-yl]-N-methyl-benzamide] the EC50 was under 50 nM. `CNC(=O)c1ccc(-n2c(=O)c3c(n4ncc(Cc5ccsc5)c24)CN(C(=O)c2ccc(Br)c(Cl)c2)CC3)cc1` [Compound 18, 4-[12-(4-bromo-3-chloro-benzoyl)-8-oxo-5-(3-thienylmethyl)-2,3,7,12-tetrazatricyclo[7.4.0.0^2,6]trideca-1(9),3,5-trien-7-yl]-N-methyl-benzamide] gave an EC50 of under 50 nM. `CNC(=O)c1ccc(-n2c(=O)c3c(n4ncc(CC5CC(F)(F)C5)c24)CN(C(=O)c2ccc(Br)c(Cl)c2)CC3)cc1` [Compound 19, 4-[12-(4-bromo-3-chloro-benzoyl)-5-[(3,3-difluorocyclobutyl)methyl]-8-oxo-2,3,7,12-tetrazatricyclo[7.4.0.0^2,6]trideca-1(9),3,5-trien-7-yl]-N-methyl-benzamide] showed an EC50 of 50 to 500 nM.
